# Data as given in a melting point compilation (Tetko et al.; mined from patent text by program, amines drawn as free bases though some values may be those of a salt).
row,Structure (SMILES),melting point [°C]
1,CCCCc1cc2c(N=C3SC[C@@H]4Cc5ccccc5CN34)cccc2cn1,82
2,COc1ccc(C2=C(Cl)C(=O)C2)cc1,96 to 98
3,Cc1cc(CCCCCOc2ccc(C3=NCCO3)cc2C(F)F)on1,80 to 89
4,CCCCCCCCSCCCC(=O)O,33 to 34.5
5,O=C(Nc1ccccc1)NC1C(=O)Nc2ccccc2N(CC23CC4CC(CC(C4)C2)C3)C1=O (stereo unspecified),> 280
6,Clc1ccccc1-c1cc[nH]n1,93
7,O=CNNc1cccc(NC(=S)Nc2ccccc2)c1,143 to 145
8,CCCCCCC(O)Cn1ccnc1 (stereo unspecified),44 to 45.5
9,CCC(=O)CS(=O)(=O)c1ccc(OS(=O)(=O)c2ccc(C)cc2)cc1,104 to 106
10,Cn1nnnc1-c1cnc2cc(Cl)ccc2c1O,350 to 351
11,CC(=O)NC[C@H]1CN(c2ccc3c(c2)OCC(C)N3)C(=O)O1 (stereo partly specified),163 to 165
12,COC(=O)c1c2cc(I)ccc2nc2ccc(I)cc12,201 to 203
13,CCN1C(OC)=NC(C)=NS1(=O)=O,50 to 53
14,O=C(CNC(=O)n1ccnc1)N(c1ccccc1)c1ccccc1,162
15,COc1ccc(C2Sc3c(ccc4ccccc34)N(CCCN(C)C)C(=O)C2OC(C)=O)cc1 (stereo unspecified),98 to 99
16,COc1ccc2c(c1)c(OC(C)C)c(C(=O)O)n2-c1ccccc1,110
17,O=S(=O)(c1ccc(Cl)cc1)C1(c2nnnn2Cc2ccccc2)CCCCC1,154 to 155
18,O=C(O)Cc1cn(S(=O)(=O)c2c(Cl)nc3sccn23)c2ccccc12,220 to 222
19,CC(C)(N)c1ccc(-c2nc(Nc3ccc(F)c(F)c3)ncc2C#N)cc1,192
20,O=c1[nH]c(Cc2cccc(O)c2)cc2ccccc12,225 to 227
21,O=C1C(=Cc2ccccc2O)c2ccccc2N1C1=NCCS1,196 to 197
22,CCCCCc1ccc(Br)nn1,31 to 32
23,CN1CCC(C(=O)N(C)c2ccc(C(=O)N3CCCCc4ccccc43)cc2)CC1,194 to 197
24,O=C(O)c1cn2c3c(c(N4CCN(Cc5ccccc5)CC4)ccc3c1=O)CCC2,274 to 278
25,COc1ccc(-c2cc(C)cn2-c2ccc(S(N)(=O)=O)cc2)cc1Cl,160 to 163
26,CNC1([C@@H]2CCN(c3ccc4c(=O)c(C(=O)O)cn5c4c3OC[C@@H]5C)C2)CC1,227 to 229

row,Structure (SMILES),melting point [°C]
1,CC(C)CC(NS(=O)(=O)c1cccc2ccccc12)C(=O)NC(C(C)C)C(O)c1c(-c2ccccc2)c1=O (stereo unspecified),109 to 115
2,COC(=O)C[C@H]1S[C@H](c2cccc(OC)c2OC)c2cc(Cl)ccc2N(CC(C)(C)C)C1=O,170 to 171
3,CCCCc1ncc(/C(C)=C(\Cc2cccs2)C(=O)O)n1Cc1ccc(C#N)cc1,210 to 212
4,CC(=O)n1cc(Cn2ccnc2)c2ccccc21,122
5,O=C(O)CCCCCCOc1cccc(-c2ccccc2)n1,74 to 75
6,O=c1ccc(-c2ccc(Cl)cc2)c[nH]1,183 to 186
7,CCOC(=O)CCNC(=O)C(=Cc1ccccc1)CSC(=O)c1ccccc1,< 50
8,COc1cc(CCCl)cc2c1OCO2,67 to 68
9,CSc1cc2c(cc1C(F)(F)F)N(C(=O)Nc1ccc(C(=O)Nc3ccncc3)cc1)CC2,158 to 160
10,OCCCc1conc1-c1ccc(Cl)c(Cl)c1,62 to 63
11,O=C1c2c(Cl)cccc2-n2cnc(-c3nnc(CCl)o3)c2[C@@H]2CCN12,185 to 189
12,CC(C)C(=O)O[C@H]1[C@H](C)OC(=O)[C@@H](NC(=O)OC(C)(C)C)COC(=O)[C@@H]1Cc1ccc(F)cc1,58 to 66
13,CN1C(=O)CC[C@]2(C)c3ccc(-c4ccc(F)c(F)c4)cc3CC[C@@H]12,143 to 148
14,CC(=O)NC[C@H]1CN(c2ccc(N3CCC(Cc4nnn(C)n4)CC3)c(F)c2)C(=O)O1,136 to 138
15,CCOC(=O)c1ccc(Oc2ccc(F)cc2)nc1,68
16,O=C1c2ccccc2C(=O)c2c1cccc2N1CCC(O)CC1,145
17,CCCn1c(=O)c2[nH]c(-c3ccc(C=C(C(=O)OCC)C(=O)OCC)o3)nc2n(CCC)c1=O,220 to 222
18,Cc1coc2cc(O)ccc12,92
19,COc1ccc(N2CCOCC2)c2sc(-c3nc4c([nH]3)COCC4)nc12,203 to 204
20,Cn1cnc2c(Cl)ncnc21,205 to 207
21,Cn1cc(I)c(=O)n(C)c1=O,226 to 228
22,COC(=O)CCCc1cc2cc(Cl)ccc2n1S(=O)(=O)c1ccc2c(ccn2C(C)=O)c1,127 to 131
23,O=C(CSc1ccccc1)NNC(=O)N1Cc2ccccc2Oc2ccc(Cl)cc21,172 to 175
24,CN(C)C=C1Cc2cc(Cl)ccc2C1=O,148 to 150
25,O=c1ccc(-c2c(-c3ccccc3)nn3ccccc23)nn1C1CCCC(O)C1 (stereo unspecified),117 to 118
26,N#Cc1cc(NC(=O)c2ccn(-c3ccc(Cl)cc3)c2)ccc1N1CCN(CCO)CC1,196

row,Structure (SMILES),melting point [°C]
1,Nc1ncc2c(n1)-c1ccc(Cl)cc1C(c1ccccc1F)=NC2,245 to 248
2,C=C(C)C(=O)Oc1ccc(S(=O)(=O)ON=C2CCCc3ccccc32)cc1,108 to 109
3,COc1ccccc1-c1cn(C)cc(-c2cccc(C(F)(F)F)c2)c1=O,193 to 196
4,CSCC(=O)[C@H](CC1CCCCC1)NC(=O)[C@H](CC(C)C)NC(=O)OCc1ccccc1,83 to 84
5,COc1ccc(-n2c(-c3sc(Nc4ccc(Cl)cc4)nc3-c3ccccc3)nc3ccccc3c2=O)cc1,220 to 221
6,O=C1Oc2ccccc2NC1Cl (stereo unspecified),133 to 136
7,Cc1sc2cc3ccccc3c(-c3ccc(OS(=O)(=O)c4ccc(C(=O)O)c(O)c4)c(C4CCCC4)c3)c2c1C,230 to 237
8,Cc1nc(C)c(Cl)c(NCCCSc2ccnc(CNc3nc(C)nc(C)c3Cl)c2C)n1,170 to 174
9,NC(=O)COC(=O)c1c(F)cccc1F,108 to 110
10,N[C@@H](CCC1CCCCC1)C(=O)O,265 to 266
11,Cc1c(-c2ccccc2)c(N2CCC(N(C)C)C2)c2oc(C(C)(C)CO)nc2c1C#N (stereo unspecified),175 to 178
12,CCCCCCC1C(=O)NC(C(=O)SCc2ccccc2)(C(O)C2C=CCCC2)C1(C)O (stereo unspecified),138
13,Cc1nn(C)c(C)c1C(=O)Nc1cccc2c1C(C)CC2(C)C (stereo unspecified),176
14,Brc1cc(Br)cc(Cc2cc(Br)cc(Br)c2)c1,196
15,CCCOCCOc1ccc(-c2ccc3c(c2)C=C(C(=O)OC)CCS3(=O)=O)cc1,105 to 107
16,CN(C)C=C1C[N+]([O-])=C(c2ccccc2F)c2cc(Cl)ccc2C1=O,175 to 178
17,CC(C)(C)Sc1c(-c2ccc(S(C)(=O)=O)cc2)cnn(CC(F)(F)F)c1=O,186 to 189
18,Nc1nc2c(c(=O)[nH]1)n(CC(=O)O)c(=O)n2C1OC(CO)C(O)C1O (stereo unspecified),> 230
19,COc1ccc(C2Sc3cc(Cl)c(Cl)cc3N(CCN(C)C)C(=O)C2O)cc1 (stereo unspecified),178 to 180
20,COc1ccc(N2CCCN(c3c(C)c(C)c4c(c3C)CC(C)(C)O4)CC2)cc1,105 to 107
21,CC(C)(C)c1ccc2c(Cc3cccc4ccccc34)c3cc(C(C)(C)C)ccc3c(Cc3cccc4ccccc34)c2c1,285
22,Cc1cc(N2C(=O)N(CCCCCN3C(=O)N(c4ccc([N+](=O)[O-])c(C)c4)C(=O)C3(C)C)C(C)(C)C2=O)ccc1[N+](=O)[O-],130 to 131
23,CCCc1c(OCCCOc2ccc(C(=O)C(=O)O)cc2)ccc(C(=O)O)c1O,182 to 185
24,CCCN(CCC)CCc1ccc(OC)c2[nH]nc(O)c12,198 to 201
25,O=C(Cc1ccccc1)Nc1ccccc1,115 to 116
26,CC(C)(O)COC1CCNCC1,80 to 82

row,Structure (SMILES),melting point [°C]
1,COc1cc2c(cc1OC)C(C(S)(C#N)C(C)C(=O)O)=NCC2 (stereo unspecified),155 to 158
2,COC(=O)c1ccc(C(O)c2cccnc2)cc1 (stereo unspecified),151
3,O=C(O)C(CCc1ccccc1)CC1(C(=O)Nc2cccnc2)CCCC1 (stereo unspecified),80 to 85
4,O=c1ccc2c(-n3cnc(Br)c3)nccc2[nH]1,278 to 280
5,FC(F)(F)c1cc(CO[C@H]2CCCN(Cc3ncncn3)[C@H]2c2ccccc2)cc(C(F)(F)F)c1,117 to 119
6,COc1ccc(C2(CCN3CCC(O)(c4nc5ccccc5n4Cc4ccc(F)cc4)CC3)CCN(C(=O)c3cc(OC)c(OC)c(OC)c3)C2)cc1OC (stereo unspecified),110 to 120
7,CC(C)(OCc1cc2cc(Cl)ccc2n1S(=O)(=O)c1ccc2c(c1)CCO2)C(=O)O,130 to 132
8,CCc1ccc2c(CC(=O)O)c(C(=O)c3cc(C)ccn3)[nH]c2c1,204 to 207
9,CCOC(=O)Cn1c2c([nH]c(=O)c1=O)CCC1=C2C=C(n2ccc(C(=O)NCc3ccc([N+](=O)[O-])cc3)c2)CC1,165
10,O=C(NC(=O)c1c(F)cccc1F)Nc1ccc(SC(F)(F)C(F)Cl)cc1F (stereo unspecified),172 to 173
11,CN(C)C=NS(=O)(=O)c1ccc(Br)s1,103 to 105
12,O=S(=O)(CCCCl)c1ccccc1,55 to 58
13,CC(=O)Nc1cc(C(=O)CCCCCl)cc2c1OCC2,150 to 152
14,N=C(N)NC(=O)c1cc(-c2cccc(N)c2)nc2ccccc12,209 to 210
15,c1ccc2nc(N3CCN(Cc4n[nH]c5ccccc45)CC3)ccc2c1,187 to 188
16,CS(=O)(=O)c1ccc(Br)c([N+](=O)[O-])c1,126
17,COC1SC(c2ccncc2)=C(C)NC1=O (stereo unspecified),134 to 135
18,CCOc1ccc(-c2ccc(S(=O)(=O)NC(C(=O)O)C3CCN(CC(C)C)CC3)s2)cc1 (stereo unspecified),220 to 225
19,Cc1cc(C)nc(N(CCN(C)C)C(N)=O)c1,88 to 89
20,CSC(=S)N1CC(C)(C)CSC1=Nc1ccccc1C(C)C,77 to 79
21,Cc1nc(N)nc(N)c1N1CCN(c2ccc(S(=O)(=O)N(C)C)cc2)CC1,301 to 304
22,CCc1cc(C(=O)c2ccccc2Cl)c(-n2c(CO)nnc2CNC(=O)c2ccc(Cl)c(Cl)c2)s1,125 to 128
23,Cc1cc(C)c2nc(NC3CCN(CCCO)CC3)n(Cc3nc(C)ccc3O)c2c1,172
